The test system of assay [1] is MCF7 cells (breast tumor cells) WT. Description: Test B: cell proliferation/viability assay (CellTiter-Glo) on MCF7 WT. Type of assay: cell-based. Particulars: Homo sapiens, MCF7, 168 h, 7 days of compound exposure. The method in brief: (§1)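 MCF7 WT / ER mutant lines (estradiol-independent, Tyr537Ser or Asp538Gly); stripped-serum, phenol red-free MEM; 9 pt 1:5 dil, 3-0.000001 μM final; 7 d; CellTiter-Glo RLU → % viability vs untreated, background-subtracted.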

Assay [2] relates to MCF7 cells expressing mutant estrogen receptor Asp 538 Gly. Description: Test B: cell proliferation/viability assay (CellTiter-Glo) on MCF7 Asp 538 Gly mutant. Type of assay: cell-based. Particulars: Homo sapiens, MCF7, 168 h, MCF7 cells expressing ER Asp 538 Gly mutant, 7 days of compound exposure, read-out: proliferation MCF7 D538G IC50. The method in brief: as §1
Assay [3] deals with MCF7 cells expressing mutant estrogen receptor Tyr 537 Ser. Description: Test B: cell proliferation/viability assay (CellTiter-Glo) on MCF7 Tyr 537 Ser mutant. Type of assay: cell-based. Particulars: Homo sapiens, MCF7, 168 h, MCF7 cells expressing ER Tyr 537 Ser mutant, 7 days of compound exposure, read-out: proliferation MCF7 Y537S IC50. The method in brief: as §1
In general terms: ATP-based viability assays read luminescence as a measure of living cells.

The target in the next assay is ERα in MCF7 cells (Homo sapiens (Human), UniProt P03372). Description: Test C: estrogen receptor degradation activity, ERα in cell western assay in MCF7 cells. Type of assay: cell-based. Particulars: for DC50: 4 hours post compound addition, ERα in cell western, read-out: Degradation IC50; for % Degradation at 3 μM: 4 hours, relative to fulvestrant. The method in brief: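 Cells seeded in stripped-serum medium are dosed the next day across a nine-concentration series (3 down to 0.000018 μM). Four hours later they are fixed, blocked, probed overnight with anti-ERα antibody, then labelled with an Alexa 488 secondary and a DNA dye before plate scanning.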
ERα in MCF7 cells, sequence (P03372 whole entry): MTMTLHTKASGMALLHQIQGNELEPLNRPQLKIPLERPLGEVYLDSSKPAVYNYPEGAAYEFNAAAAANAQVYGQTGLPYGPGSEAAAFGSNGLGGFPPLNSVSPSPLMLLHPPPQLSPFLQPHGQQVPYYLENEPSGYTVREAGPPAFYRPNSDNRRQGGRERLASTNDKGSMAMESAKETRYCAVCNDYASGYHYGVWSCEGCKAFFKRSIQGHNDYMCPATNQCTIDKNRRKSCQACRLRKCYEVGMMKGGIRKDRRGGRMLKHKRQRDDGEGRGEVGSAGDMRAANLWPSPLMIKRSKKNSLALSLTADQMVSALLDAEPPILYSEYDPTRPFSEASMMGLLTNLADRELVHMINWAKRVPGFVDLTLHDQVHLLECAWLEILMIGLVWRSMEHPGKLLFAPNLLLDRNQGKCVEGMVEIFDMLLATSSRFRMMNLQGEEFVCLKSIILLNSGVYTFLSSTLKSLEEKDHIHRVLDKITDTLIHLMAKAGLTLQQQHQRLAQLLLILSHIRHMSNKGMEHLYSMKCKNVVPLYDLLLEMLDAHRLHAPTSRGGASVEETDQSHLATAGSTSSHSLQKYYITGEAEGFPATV

For assay [4], the target named is His6-ERα298-554 D538G mutant (ERα ligand-binding domain) (Homo sapiens (Human), UniProt P03372, D538G). Description: Test A: biochemical antagonist activity, LanthaScreen TR-FRET ERα coactivator assay, D538G mutant. Particulars: read-out: Antagonism D538G IC50. The method in brief: (§2)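 His6-ERα LBD (aa 298–554), 0.5 nM, with Tb-anti-His6 antibody, 250 nM PGC1a peptide and 3 nM (or 10 nM) estradiol in pH 7.4 potassium phosphate/DTT buffer; incubated with compound overnight at room temperature. IC50 from 4-parameter logistic fit of TR-FRET 520:495 nm ratio.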
His6-ERα298-554 D538G mutant (ERα ligand-binding domain), sequence (P03372 298-554 D538G): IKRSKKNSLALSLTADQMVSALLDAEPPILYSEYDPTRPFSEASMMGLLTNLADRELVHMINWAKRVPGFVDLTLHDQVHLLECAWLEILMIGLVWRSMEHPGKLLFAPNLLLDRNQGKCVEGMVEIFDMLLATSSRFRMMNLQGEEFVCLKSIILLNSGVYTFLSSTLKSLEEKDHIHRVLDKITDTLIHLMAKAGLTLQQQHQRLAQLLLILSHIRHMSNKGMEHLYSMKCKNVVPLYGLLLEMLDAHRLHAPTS
Background: In TR-FRET formats the signal depends on donor and acceptor labels being close together.

The target of assay [5] is His6-ERα298-554 Y537S mutant (ERα ligand-binding domain) (Homo sapiens (Human), UniProt P03372, Y537S). Description: Test A: biochemical antagonist activity, LanthaScreen TR-FRET ERα coactivator assay, Y537S mutant. Particulars: read-out: Antagonism Y537S IC50. The method in brief:
as §2

The target in assay [6] is His6-ERα298-554 WT (ERα ligand-binding domain) (Homo sapiens (Human), UniProt P03372). Description: Test A: biochemical antagonist activity, LanthaScreen TR-FRET ERα coactivator assay, WT. Particulars: read-out: Antagonism WT IC50. The method in brief: as §2
His6-ERα298-554 WT (ERα ligand-binding domain), sequence (P03372 298-554): as the sequence (P03372 298-554 D538G) above, with G241D counted along it
Where [7] appears, read: asterisk (*): protocol using 10 nM estradiol.

The text below walks through data of patent US11149031B2, “Substituted N-(3-fluoropropyl)-pyrrolidine compounds, processes for their preparation and therapeutic uses thereof” (SANOFI, priority 2016, dated 2021).

Where two headings read alike, the source gives them in different places.

His6-ERα298-554 Y537S mutant (ERα ligand-binding domain), sequence (P03372 298-554 Y537S): as the sequence (P03372 298-554 D538G) above, with Y240S, G241D counted along it

On to `CC(C)(C)c1ccc(C2=C(c3ccc(N[C@H]4CCN(CCCF)C4)cc3)c3ccc(O)cc3CCC2)cc1` [Example 89, 6-(4-tert-butylphenyl)-5-[4-[[(3S)-1-(3-fluoropropyl)pyrrolidin-3-yl]amino]phenyl]-8,9-dihydro-7H-benzo[7]annulen-2-ol], for which the IC50 was 0.4 nM in assay [1]; 1 nM in assay [2]; 5 nM in assay [3]; 726 nM in assay [4] (setting [7]); 423 nM in assay [5] (setting [7]); 27 nM in assay [6] (setting [7]). Besides, at ERα in MCF7 cells, the DC50 amounted to 1 nM. Further, the “% Degradation at 3 μM” value at ERα in MCF7 cells is reported as 91%.

Turning to `Oc1ccc2c(c1)CCCC(c1ccc(SC(F)(F)F)cc1)=C2c1ccc(N[C@H]2CCN(CCCF)C2)cc1` [Example 90, 5-[4-[[(3S)-1-(3-fluoropropyl)pyrrolidin-3-yl]amino]phenyl]-6-[4-(trifluoromethylsulfanyl)phenyl]-8,9-dihydro-7H-benzo[7]annulen-2-ol], the IC50 in assay [1] amounted to 0.3 nM; in assay [2], 0.5 nM; in assay [3], 4 nM; in assay [4] (setting [7]) it was 293 nM; in assay [5] (setting [7]) it was 165 nM; in assay [6] (setting [7]) it was 12 nM. The DC50 on ERα in MCF7 cells was determined as 0.4 nM. In addition, the “% Degradation at 3 μM” value at ERα in MCF7 cells was 91%.

As for `Cc1ccc(C2=C(c3ccc(O[C@H]4CCN(CCCF)C4)cc3)c3ccc(O)cc3OCC2)c(F)c1` [Example 96, 4-(2-fluoro-4-methyl-phenyl)-5-[4-[(3S)-1-(3-fluoropropyl)pyrrolidin-3-yl]oxyphenyl]-2,3-dihydro-1-benzoxepin-8-ol], the IC50 was determined as 2 nM in assay [1]; 5 nM in assay [2]; 16 nM in assay [3]; 47 nM in assay [4] (protocol with 3 nM estradiol); 19 nM in assay [5] (protocol with 3 nM estradiol); 7 nM in assay [6] (protocol with 3 nM estradiol). For the same molecule, the DC50 at ERα in MCF7 cells turned out to be 0.6 nM. Moreover, the “% Degradation at 3 μM” value at ERα in MCF7 cells is listed as 91%.

Take `Oc1ccc2c(c1)OCCC(c1ccc(Cl)cc1F)=C2c1ccc(O[C@H]2CCN(CCCF)C2)cc1` [Example 98, 4-(4-chloro-2-fluoro-phenyl)-5-[4-[(3S)-1-(3-fluoropropyl)pyrrolidin-3-yl]oxyphenyl]-2,3-dihydro-1-benzoxepin-8-ol]: the IC50 in assay [1] was found to be 0.5 nM; in assay [2], 2 nM; in assay [3], 5 nM; in assay [4] (protocol with 3 nM estradiol), 106 nM; in assay [5] (protocol with 3 nM estradiol), 40 nM; in assay [6] (protocol with 3 nM estradiol), 14 nM. Also, at ERα in MCF7 cells, the DC50 was determined as 0.5 nM. Further, the “% Degradation at 3 μM” value at ERα in MCF7 cells is listed as 93%.

For the molecule `Oc1ccc2c(c1)OCCC(c1ccc(Cl)cc1Cl)=C2c1ccc(O[C@H]2CCN(CCCF)C2)cc1` [Example 102, 4-(2,4-dichlorophenyl)-5-[4-[(3S)-1-(3-fluoropropyl)pyrrolidin-3-yl]oxyphenyl]-2,3-dihydro-1-benzoxepin-8-ol], the IC50 in assay [1] came out at 0.5 nM; in assay [2] it was 0.8 nM; in assay [3] it was 5 nM; in assay [4] (protocol with 3 nM estradiol) it was 106 nM; in assay [5] (protocol with 3 nM estradiol), 51 nM; in assay [6] (protocol with 3 nM estradiol), 12 nM. The DC50 on ERα in MCF7 cells amounted to 2 nM. For the same molecule, the “% Degradation at 3 μM” value on ERα in MCF7 cells is 87%.

As to `Oc1ccc2c(c1)OCCC(c1ccc3cc[nH]c3c1)=C2c1ccc(O[C@H]2CCN(CCCF)C2)cc1` [Example 103, 5-[4-[(3S)-1-(3-fluoropropyl)pyrrolidin-3-yl]oxyphenyl]-4-(1H-indol-6-yl)-2,3-dihydro-1-benzoxepin-8-ol], the IC50 in assay [1] amounted to 0.3 nM; in assay [2], 1 nM; in assay [3] it was 4 nM; in assay [4] (protocol with 3 nM estradiol), 252 nM; in assay [5] (protocol with 3 nM estradiol) it was 101 nM; in assay [6] (protocol with 3 nM estradiol) it was 38 nM. Further, the DC50 at ERα in MCF7 cells is 3 nM. For the same molecule, the “% Degradation at 3 μM” value on ERα in MCF7 cells was found to be 89%.

As for `Cc1c(Cl)cccc1C1=C(c2ccc(O[C@H]3CCN(CCCF)C3)cc2)c2ccc(O)c(F)c2OCC1` [Example 105, 4-(3-chloro-2-methyl-phenyl)-9-fluoro-5-[4-[(3S)-1-(3-fluoropropyl)pyrrolidin-3-yl]oxyphenyl]-2,3-dihydro-1-benzoxepin-8-ol], the IC50 in assay [1] was determined as 0.5 nM; in assay [2] it was 2 nM; in assay [3], 11 nM; in assay [4] (protocol with 3 nM estradiol) it was 38 nM; in assay [5] (protocol with 3 nM estradiol), 23 nM; in assay [6] (protocol with 3 nM estradiol), 5 nM. Also, the DC50 on ERα in MCF7 cells is 0.2 nM. At ERα in MCF7 cells, the “% Degradation at 3 μM” value came to 91%.

With `Cc1ccc(C2=C(c3ccc(O[C@H]4CCN(CCCF)C4)cc3)c3ccc(O)c(F)c3OCC2)c(F)c1` [Example 106, 9-fluoro-4-(2-fluoro-4-methyl-phenyl)-5-[4-[(3S)-1-(3-fluoropropyl)pyrrolidin-3-yl]oxyphenyl]-2,3-dihydro-1-benzoxepin-8-ol], the IC50 in assay [1] worked out at 0.7 nM; in assay [2], 3 nM; in assay [3], 12 nM; in assay [4] (protocol with 3 nM estradiol), 31 nM; in assay [5] (protocol with 3 nM estradiol), 16 nM; in assay [6] (protocol with 3 nM estradiol), 5 nM. Besides, the DC50 at ERα in MCF7 cells was 0.5 nM. For the same molecule, on ERα in MCF7 cells, the “% Degradation at 3 μM” value is on record as 90%.

With `Oc1ccc2c(c1F)OCCC(c1ccc3c(c1)CCN3)=C2c1ccc(O[C@H]2CCN(CCCF)C2)cc1` [Example 107, 9-fluoro-5-[4-[(3S)-1-(3-fluoropropyl)pyrrolidin-3-yl]oxyphenyl]-4-indolin-5-yl-2,3-dihydro-1-benzoxepin-8-ol], the IC50 in assay [1] came out at 19 nM; in assay [2] it was 33 nM; in assay [3], 147 nM; in assay [4] (protocol with 3 nM estradiol), 79 nM; in assay [5] (protocol with 3 nM estradiol), 55 nM; in assay [6] (protocol with 3 nM estradiol) it was 19 nM. The DC50 at ERα in MCF7 cells came out at 2 nM. Besides, the “% Degradation at 3 μM” value at ERα in MCF7 cells worked out at 82%.

As to `Oc1ccc2c(c1)OCCC(c1cccc3[nH]ccc13)=C2c1ccc(O[C@H]2CCN(CCCF)C2)cc1` [Example 110, 5-[4-[(3S)-1-(3-fluoropropyl)pyrrolidin-3-yl]oxyphenyl]-4-(1H-indol-4-yl)-2,3-dihydro-1-benzoxepin-8-ol], the IC50 was 1 nM in assay [1]; 6 nM in assay [2]; 45 nM in assay [3]; 39 nM in assay [4] (protocol with 3 nM estradiol); 26 nM in assay [5] (protocol with 3 nM estradiol); 5 nM in assay [6] (protocol with 3 nM estradiol). Moreover, the DC50 on ERα in MCF7 cells came to 0.2 nM. Also, the “% Degradation at 3 μM” value on ERα in MCF7 cells is recorded as 87%.

In the case of `Oc1ccc2c(c1F)OCCC(c1ccc3[nH]ccc3c1)=C2c1ccc(O[C@H]2CCN(CCCF)C2)cc1` [Example 113, 9-fluoro-5-[4-[(3S)-1-(3-fluoropropyl)pyrrolidin-3-yl]oxyphenyl]-4-(1H-indol-5-yl)-2,3-dihydro-1-benzoxepin-8-ol], the IC50 in assay [1] was 5 nM; in assay [2] it was 14 nM; in assay [3], 31 nM; in assay [4] (protocol with 3 nM estradiol), 32 nM; in assay [5] (protocol with 3 nM estradiol), 19 nM; in assay [6] (protocol with 3 nM estradiol) it was 6 nM. Moreover, the DC50 on ERα in MCF7 cells is 0.7 nM. Besides, the “% Degradation at 3 μM” value on ERα in MCF7 cells amounted to 80%.

In the case of `Oc1ccc2c(c1)OCCC(c1ccc3c(c1)NCC3)=C2c1ccc(O[C@H]2CCN(CCCF)C2)cc1` [Example 116, 5-[4-[(3S)-1-(3-fluoropropyl)pyrrolidin-3-yl]oxyphenyl]-4-indolin-6-yl-2,3-dihydro-1-benzoxepin-8-ol], the IC50 in assay [1] came out at 6 nM; in assay [2], 17 nM; in assay [3], 150 nM; in assay [4] (protocol with 3 nM estradiol), 120 nM; in assay [5] (protocol with 3 nM estradiol), 86 nM; in assay [6] (protocol with 3 nM estradiol) it was 31 nM. For the same molecule, the DC50 on ERα in MCF7 cells stood at 2 nM. Also, the “% Degradation at 3 μM” value on ERα in MCF7 cells came to 88%.
